ChEMBL document CHEMBL1201862, “PubChem BioAssay data set” (2004)
The source made the active and inactive calls. No stated cut-off is given here; in the data, actives have a measured IC50 and inactives only a lower limit.

Molecular target: Envelope glycoprotein gp160 (Human immunodeficiency virus 1, UniProt Q6QLK5)
Test: inhibitors of HIV fusion peptide binding, primary screen, biochemical, uHTS, fluorescence dequenching (AID 1986)

Sequence of Envelope glycoprotein gp160 (Q6QLK5 whole entry, the tested form may be a part): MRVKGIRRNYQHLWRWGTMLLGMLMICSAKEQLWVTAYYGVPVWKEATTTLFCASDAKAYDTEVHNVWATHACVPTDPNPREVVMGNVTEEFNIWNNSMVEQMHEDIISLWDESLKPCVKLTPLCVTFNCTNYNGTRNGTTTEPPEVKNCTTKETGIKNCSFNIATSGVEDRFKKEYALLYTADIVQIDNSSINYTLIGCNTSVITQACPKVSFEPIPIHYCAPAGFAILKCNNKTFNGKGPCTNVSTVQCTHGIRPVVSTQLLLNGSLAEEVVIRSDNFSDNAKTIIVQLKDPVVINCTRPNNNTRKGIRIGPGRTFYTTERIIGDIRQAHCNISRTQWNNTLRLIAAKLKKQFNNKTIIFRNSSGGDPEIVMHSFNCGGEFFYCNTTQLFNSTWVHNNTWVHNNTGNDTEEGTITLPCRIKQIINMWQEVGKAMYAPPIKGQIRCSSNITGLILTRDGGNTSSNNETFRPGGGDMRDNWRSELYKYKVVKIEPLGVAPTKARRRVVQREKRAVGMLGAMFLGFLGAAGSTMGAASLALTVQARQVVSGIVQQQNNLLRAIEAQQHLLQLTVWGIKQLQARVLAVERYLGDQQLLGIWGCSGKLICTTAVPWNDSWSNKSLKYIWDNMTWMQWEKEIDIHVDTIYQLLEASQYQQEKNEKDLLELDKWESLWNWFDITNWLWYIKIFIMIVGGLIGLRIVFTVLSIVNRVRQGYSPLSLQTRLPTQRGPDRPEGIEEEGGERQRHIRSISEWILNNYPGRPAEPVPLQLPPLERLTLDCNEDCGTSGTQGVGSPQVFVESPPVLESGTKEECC

Question: With O=S(=O)(Nc1nc(-c2sccc2Cl)cs1)c1cc(Cl)ccc1Cl as the compound, how does the IC50 read?
Answer: 8.21 µM (active)
